Consider 18 compounds from patent US20230295200A1 (REGENTS OF THE UNIVERSITY OF MICHIGAN, priority 2022, published 2023).

A value given as a limit tells only on which side of the number the result lay.

This assay deals with T1, STAT6 protein (Homo sapiens, UniProt P42226).
T1 sequence (P42226 1-847): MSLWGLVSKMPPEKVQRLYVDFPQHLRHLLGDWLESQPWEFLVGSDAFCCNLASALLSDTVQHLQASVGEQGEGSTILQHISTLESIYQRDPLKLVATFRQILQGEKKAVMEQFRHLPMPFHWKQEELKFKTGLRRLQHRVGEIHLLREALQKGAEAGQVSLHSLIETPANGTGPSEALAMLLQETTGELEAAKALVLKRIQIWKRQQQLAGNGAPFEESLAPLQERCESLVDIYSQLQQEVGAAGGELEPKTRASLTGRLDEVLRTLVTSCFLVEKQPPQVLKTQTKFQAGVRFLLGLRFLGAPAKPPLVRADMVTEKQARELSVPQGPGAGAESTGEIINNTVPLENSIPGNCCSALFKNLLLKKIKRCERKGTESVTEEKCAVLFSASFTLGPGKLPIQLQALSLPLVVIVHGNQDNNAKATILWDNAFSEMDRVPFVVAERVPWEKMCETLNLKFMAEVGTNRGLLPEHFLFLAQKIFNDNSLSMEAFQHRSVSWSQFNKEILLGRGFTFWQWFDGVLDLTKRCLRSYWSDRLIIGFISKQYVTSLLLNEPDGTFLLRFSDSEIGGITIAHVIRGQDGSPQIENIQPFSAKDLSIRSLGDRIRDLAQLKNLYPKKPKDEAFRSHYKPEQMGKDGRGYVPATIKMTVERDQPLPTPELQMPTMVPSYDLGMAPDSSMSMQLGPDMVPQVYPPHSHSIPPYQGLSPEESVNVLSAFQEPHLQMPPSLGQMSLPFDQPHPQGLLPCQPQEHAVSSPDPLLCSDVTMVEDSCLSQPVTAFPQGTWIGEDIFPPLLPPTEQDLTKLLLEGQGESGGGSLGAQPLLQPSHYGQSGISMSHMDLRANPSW
Put plainly: Fluorescence polarization (FP) binding assay, STAT6. The settings on record: FP competition, 5 nM fluorescein-labeled tracer, 200 nM protein, PBS pH7.4; read-out: Binding STAT6. The procedure, abridged: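 Each well holds 200 nM STAT5 and/or STAT6 with 5 nM fluorescent tracer in PBS pH 7.4 (0.01% BGG, 0.01% Tween-20, 2 mM DTT). Binding reaches equilibrium over 1 h at room temperature after brief shaking, and polarization data are fitted nonlinearly.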
For `CN1CCC(C[C@H](NC(=O)c2cc3cc(C(F)(F)P(=O)(O)O)ccc3s2)C(=O)N2CCC[C@H]2C(=O)N2CCO[C@H](c3ccccc3)C2)CC1` [Compound 291, (difluoro(2-(((S)-3-(1-methylpiperidin-4-yl)-1-oxo-1-((S)-2-((R)-2-phenylmorpholine-4-carbonyl)pyrrolidin-1-yl)propan-2-yl)carbamoyl)benzo[b]thiophen-5-yl)methyl)phosphonic acid], the Ki lay within 100 to 1000 nM.

With `CCN1CCC(C[C@H](NC(=O)c2cc3cc(C(F)(F)P(=O)(O)O)ccc3s2)C(=O)N2CCC[C@H]2C(=O)N2CCO[C@H](c3ccccc3)C2)CC1` [Compound 292, ((2-(((S)-3-(1-ethylpiperidin-4-yl)-1-oxo-1-((S)-2-((R)-2-phenylmorpholine-4-carbonyl)pyrrolidin-1-yl)propan-2-yl)carbamoyl)benzo[b]thiophen-5-yl)difluoromethyl)phosphonic acid], the Ki lay in the range of 100 to 1000 nM.

Take `CC(C)CCN1CCC(C[C@H](NC(=O)c2cc3cc(C(F)(F)P(=O)(O)O)ccc3s2)C(=O)N2CCC[C@H]2C(=O)N2CCO[C@H](c3ccccc3)C2)CC1` [Compound 293, (difluoro(2-(((S)-3-(1-isopentylpiperidin-4-yl)-1-oxo-1-((S)-2-((R)-2-phenylmorpholine-4-carbonyl)pyrrolidin-1-yl)propan-2-yl)carbamoyl)benzo[b]thiophen-5-yl)methyl)phosphonic acid]: the Ki is 100 to 1000 nM.

Take `O=C(N[C@@H](CC1CCN(CC2CCCCC2)CC1)C(=O)N1CCC[C@H]1C(=O)N1CCO[C@H](c2ccccc2)C1)c1cc2cc(C(F)(F)P(=O)(O)O)ccc2s1` [Compound 294, ((2-(((S)-3-(1-(cyclohexylmethyl)piperidin-4-yl)-1-oxo-1-((S)-2-((R)-2-phenylmorpholine-4-carbonyl)pyrrolidin-1-yl)propan-2-yl)carbamoyl)benzo[b]thiophen-5-yl)difluoromethyl)phosphonic acid]: the Ki was 100 to 1000 nM.

For the compound `CCC(CC)CN1CCC(C[C@H](NC(=O)c2cc3cc(C(F)(F)P(=O)(O)O)ccc3s2)C(=O)N2CCC[C@H]2C(=O)N2CCO[C@H](c3ccccc3)C2)CC1` [Compound 295, ((2-(((S)-3-(1-(2-ethylbutyl)piperidin-4-yl)-1-oxo-1-((S)-2-((R)-2-phenylmorpholine-4-carbonyl)pyrrolidin-1-yl)propan-2-yl)carbamoyl)benzo[b]thiophen-5-yl)difluoromethyl)phosphonic acid], the Ki lay within 100 to 1000 nM.

Regarding `O=C(N[C@@H](CC1CCN(CCc2ccccc2)CC1)C(=O)N1CCC[C@H]1C(=O)N1CCO[C@H](c2ccccc2)C1)c1cc2cc(C(F)(F)P(=O)(O)O)ccc2s1` [Compound 296, (difluoro(2-(((S)-1-oxo-3-(1-phenethylpiperidin-4-yl)-1-((S)-2-((R)-2-phenylmorpholine-4-carbonyl)pyrrolidin-1-yl)propan-2-yl)carbamoyl)benzo[b]thiophen-5-yl)methyl)phosphonic acid], the Ki fell in the range of 100 to 1000 nM.

For `O=C(N[C@@H](CC1CCN(CCCc2ccccc2)CC1)C(=O)N1CCC[C@H]1C(=O)N1CCO[C@H](c2ccccc2)C1)c1cc2cc(C(F)(F)P(=O)(O)O)ccc2s1` [Compound 297, (difluoro(2-(((S)-1-oxo-1-((S)-2-((R)-2-phenylmorpholine-4-carbonyl)pyrrolidin-1-yl)-3-(1-(3-phenylpropyl)piperidin-4-yl)propan-2-yl)carbamoyl)benzo[b]thiophen-5-yl)methyl)phosphonic acid], the Ki lay in the range of 100 to 1000 nM.

Take `CC(C)(C)[C@H](NC(=O)c1cc2cc(C(F)(F)P(=O)(O)O)ccc2s1)C(=O)N1C[C@H](Oc2ccccc2)C[C@H]1C(=O)N1CCO[C@H](c2ccccc2)C1` [Compound 299, ((2-(((S)-3,3-dimethyl-1-oxo-1-((2S,4R)-4-phenoxy-2-((R)-2-phenylmorpholine-4-carbonyl)pyrrolidin-1-yl)butan-2-yl)carbamoyl)benzo[b]thiophen-5-yl)difluoromethyl)phosphonic acid]: the Ki was in the range of 100 to 1000 nM.

Regarding `CC(C)(C)[C@H](NC(=O)c1cc2cc(C(F)(F)P(=O)(O)O)ccc2s1)C(=O)N1C[C@H](OCc2ccccc2)C[C@H]1C(=O)N1CCO[C@H](c2ccccc2)C1` [Compound 300, ((2-(((S)-1-((2S,4R)-4-(benzyloxy)-2-((R)-2-phenylmorpholine-4-carbonyl)pyrrolidin-1-yl)-3,3-dimethyl-1-oxobutan-2-yl)carbamoyl)benzo[b]thiophen-5-yl)difluoromethyl)phosphonic acid], the Ki is under 100 nM.

Consider `CC(C)(C)[C@H](NC(=O)c1cc2cc(C(F)(F)P(=O)(O)O)ccc2s1)C(=O)N1C[C@@H](Oc2ccccc2)C[C@H]1C(=O)N1CCO[C@H](c2ccccc2)C1` [Compound 301, ((2-(((S)-3,3-dimethyl-1-oxo-1-((2S,4S)-4-phenoxy-2-((R)-2-phenylmorpholine-4-carbonyl)pyrrolidin-1-yl)butan-2-yl)carbamoyl)benzo[b]thiophen-5-yl)difluoromethyl)phosphonic acid], for which the Ki is under 100 nM.

With `CN1CC[C@H]2CC[C@@H](C(=O)N3CCc4ccccc4C3)N2C(=O)[C@@H](NC(=O)c2cc3cc(C(F)(F)P(=O)(O)O)ccc3[nH]2)C1` [Compound 330, (difluoro(2-(((5S,8S,10aR)-3-methyl-6-oxo-8-(1,2,3,4-tetrahydroisoquinoline-2-carbonyl)decahydropyrrolo[1,2-a][1,5]diazocin-5-yl)carbamoyl)-1H-indol-5-yl)methyl)phosphonic acid], the Ki is over 10000 nM.

With `CN1CC[C@H]2CC[C@@H](C(=O)N3CCc4ccccc4C3)N2C(=O)[C@@H](NC(=O)c2cc3cc(C(F)(F)P(=O)(O)O)ccc3s2)C1` [Compound 331, (difluoro(2-(((5S,8S,10aR)-3-methyl-6-oxo-8-(1,2,3,4-tetrahydroisoquinoline-2-carbonyl)decahydropyrrolo[1,2-a][1,5]diazocin-5-yl)carbamoyl)benzo[b]thiophen-5-yl)methyl)phosphonic acid], the Ki was over 10000 nM.

In the case of `CC(=O)N1CC[C@H]2CC[C@@H](C(=O)N3CCc4ccccc4C3)N2C(=O)[C@@H](NC(=O)c2cc3cc(C(F)(F)P(=O)(O)O)ccc3[nH]2)C1` [Compound 332, ((2-(((5S,8S,10aR)-3-acetyl-6-oxo-8-(1,2,3,4-tetrahydroisoquinoline-2-carbonyl)decahydropyrrolo[1,2-a][1,5]diazocin-5-yl)carbamoyl)-1H-indol-5-yl)difluoromethyl)phosphonic acid], the Ki was over 10000 nM.

Take `CC(=O)N1CC[C@H]2CC[C@@H](C(=O)N3CCc4ccccc4C3)N2C(=O)[C@@H](NC(=O)c2cc3cc(C(F)(F)P(=O)(O)O)ccc3s2)C1` [Compound 333, ((2-(((5S,8S,10aR)-3-acetyl-6-oxo-8-(1,2,3,4-tetrahydroisoquinoline-2-carbonyl)decahydropyrrolo[1,2-a][1,5]diazocin-5-yl)carbamoyl)benzo[b]thiophen-5-yl)difluoromethyl)phosphonic acid]: the Ki is over 10000 nM.

For `CC(=O)N1CC[C@H]2CC[C@@H](C(=O)N3CCc4ccccc4C3)N2C(=O)[C@@H](NC(=O)c2ccc3ccc(C(F)(F)P(=O)(O)O)cc3c2)C1` [Compound 334, ((7-(((5S,8S,10aR)-3-acetyl-6-oxo-8-(1,2,3,4-tetrahydroisoquinoline-2-carbonyl)decahydropyrrolo[1,2-a][1,5]diazocin-5-yl)carbamoyl)naphthalen-2-yl)difluoromethyl)phosphonic acid], the Ki was over 10000 nM.

For the compound `CC(=O)N1CC[C@H]2CC[C@@H](C(=O)NCc3ccccc3)N2C(=O)[C@@H](NC(=O)c2cc3cc(C(F)(F)P(=O)(O)O)ccc3[nH]2)C1` [Compound 335, ((2-(((5S,8S,10aR)-3-acetyl-8-(benzylcarbamoyl)-6-oxodecahydropyrrolo[1,2-a][1,5]diazocin-5-yl)carbamoyl)-1H-indol-5-yl)difluoromethyl)phosphonic acid], the Ki is over 10000 nM.

As to `CC(=O)N1CC[C@H]2CC[C@@H](C(=O)N(C)Cc3ccccc3)N2C(=O)[C@@H](NC(=O)c2cc3cc(C(F)(F)P(=O)(O)O)ccc3[nH]2)C1` [Compound 336, ((2-(((5S,8S,10aR)-3-acetyl-8-(benzyl(methyl)carbamoyl)-6-oxodecahydropyrrolo[1,2-a][1,5]diazocin-5-yl)carbamoyl)-1H-indol-5-yl)difluoromethyl)phosphonic acid], the Ki was 1000 to 10000 nM.

Regarding `CC(=O)N1CC[C@H]2CC[C@@H](C(=O)N[C@@H](C)c3ccccc3)N2C(=O)[C@@H](NC(=O)c2cc3cc(C(F)(F)P(=O)(O)O)ccc3[nH]2)C1` [Compound 337, ((2-(((5S,8S,10aR)-3-acetyl-6-oxo-8-(((S)-1-phenylethyl)carbamoyl)decahydropyrrolo[1,2-a][1,5]diazocin-5-yl)carbamoyl)-1H-indol-5-yl)difluoromethyl)phosphonic acid], the Ki was in the range of 1000 to 10000 nM.
